This note sets out measurements from patent US20260274807A1 (University of Health Sciences and Pharmacy in St. Louis, priority 2023, published 2026).

pEC50: −log10 of the molar value.

The target of test [1] is T1, ERRα (Homo sapiens, UniProt P11474).
T1 construct: expressed in transfected cells; host or cells: HEK293
T1 sequence (P11474 1-423): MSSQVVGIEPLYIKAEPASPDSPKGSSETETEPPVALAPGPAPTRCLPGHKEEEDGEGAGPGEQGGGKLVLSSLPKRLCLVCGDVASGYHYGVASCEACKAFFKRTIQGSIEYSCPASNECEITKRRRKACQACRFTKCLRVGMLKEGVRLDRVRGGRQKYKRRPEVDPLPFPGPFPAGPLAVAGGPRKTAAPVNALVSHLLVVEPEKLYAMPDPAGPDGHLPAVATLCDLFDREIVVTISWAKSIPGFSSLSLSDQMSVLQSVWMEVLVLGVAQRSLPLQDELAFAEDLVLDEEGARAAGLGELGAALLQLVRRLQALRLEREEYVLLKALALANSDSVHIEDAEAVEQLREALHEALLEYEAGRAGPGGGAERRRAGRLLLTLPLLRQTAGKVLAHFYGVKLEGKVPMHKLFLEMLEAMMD
The test is described as follows: ERRE luciferase reporter assay in HEK293 cells transfected with pcDNA3.1 ERRα. To be noted: HEK293 cells transfected with ERRE reporter construct and pcDNA3.1 ERRα; compound for 24 hours; luciferase activity. In kind it is cell-based. On the procedure:
(§1) HEK293 cells were maintained in Dulbecco's modified Eagles medium (DMEM) supplemented with 10% fetal bovine serum at 37° C. under […]. […] Cells were transfected with ERRE reporter construct and pcDNA3.1 ERRα or ERRγ. Twenty-four-hours post-transfection, the cells were treated with vehicle or compound (various concentrations) for 24 hours (4 wells per dose). Luciferase activity was measured using the One-Glo Tox luciferase reporter assay system (Promega) and EC50s were calculated using GraphPad Prism software.

In test [2] the target is T2, ERRγ (Homo sapiens, UniProt P62508).
T2 construct: expressed in transfected cells; host or cells: HEK293
T2 sequence (P62508 1-458): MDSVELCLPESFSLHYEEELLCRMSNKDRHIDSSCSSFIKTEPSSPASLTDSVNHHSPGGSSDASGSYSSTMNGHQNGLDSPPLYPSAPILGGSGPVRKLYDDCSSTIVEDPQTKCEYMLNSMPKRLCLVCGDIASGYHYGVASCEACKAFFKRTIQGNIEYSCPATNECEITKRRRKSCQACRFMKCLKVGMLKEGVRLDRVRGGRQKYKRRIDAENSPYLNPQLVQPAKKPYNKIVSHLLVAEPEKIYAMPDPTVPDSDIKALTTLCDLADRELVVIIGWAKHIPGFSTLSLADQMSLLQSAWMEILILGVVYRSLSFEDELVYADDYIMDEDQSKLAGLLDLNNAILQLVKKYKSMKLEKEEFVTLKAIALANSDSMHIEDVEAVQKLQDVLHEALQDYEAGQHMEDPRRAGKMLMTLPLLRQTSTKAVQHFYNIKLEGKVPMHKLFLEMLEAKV
Description: ERRE luciferase reporter assay in HEK293 cells transfected with pcDNA3.1 ERRγ. In kind it is cell-based. To be noted: HEK293 cells transfected with ERRE reporter construct and pcDNA3.1 ERRγ; compound for 24 hours; luciferase activity. The method, then:
as §1
For orientation: A reporter such as luciferase makes a cellular process visible.

What is called pEC50 is −log10 of the EC50, conventionally taken in molar units. Regarding `CC(C)(C)c1ccc(-c2nnc(-c3ccccc3N)o2)cc1` [Entry 75, 2-(5-(4-(tert-butyl)phenyl)-1,3,4-oxadiazol-2-yl)aniline], the pEC50 in test [1] and in test [2] was greater than 6.00 each time.
Consider `Cc1ccc(-c2nnc(-c3ccccc3[N+](=O)[O-])o2)o1` [Entry 76, 2-(5-methylfuran-2-yl)-5-(2-nitrophenyl)-1,3,4-oxadiazole], for which the pEC50 in test [1] and in test [2] was 5.30 to 6.00 each time.
`O=[N+]([O-])c1ccccc1-c1nnc(-c2ccccc2)o1` [Entry 80, 2-(2-nitrophenyl)-5-phenyl-1,3,4-oxadiazole]: the pEC50 in test [1] and in test [2] was 5.30 to 6.00 in each case.
On to `O=[N+]([O-])c1cccc(-c2nnc(-c3ccccc3)o2)c1` [Entry 81, 2-(3-nitrophenyl)-5-phenyl-1,3,4-oxadiazole], for which the pEC50 in test [1] and in test [2] was 5.30 to 6.00 each time.
In the case of `COc1ccc(-c2nnc(-c3ccccc3[N+](=O)[O-])o2)cc1` [Entry 82, 2-(4-methoxyphenyl)-5-(2-nitrophenyl)-1,3,4-oxadiazole], the pEC50 in test [1] and in test [2] was greater than 6.00 throughout.
In the case of `CC(C)(C)c1ccc(-c2nnc(-c3ccccc3[N+](=O)[O-])o2)cc1` [Entry 83, 2-(4-(tert-butyl)phenyl)-5-(2-nitrophenyl)-1,3,4-oxadiazole], the pEC50 in test [1] and in test [2] was greater than 6.00 in each case.
As to `O=[N+]([O-])c1ccc(Br)cc1-c1nnc(-c2ccccc2)o1` [Entry 84, 2-(5-bromo-2-nitrophenyl)-5-phenyl-1,3,4-oxadiazole], the pEC50 in test [1] and in test [2] was less than 5.30 each time.
As to `COc1ccc(-c2nnc(-c3ccccc3)o2)c([N+](=O)[O-])c1` [Entry 86, 2-(4-methoxy-2-nitrophenyl)-5-phenyl-1,3,4-oxadiazole], the pEC50 in test [1] and in test [2] was greater than 6.00 in each case.
With `COc1ccc([N+](=O)[O-])c(-c2nnc(-c3ccccc3)o2)c1` [Entry 87, 2-(5-methoxy-2-nitrophenyl)-5-phenyl-1,3,4-oxadiazole], the pEC50 is 5.30 to 6.00 in test [1] and less than 5.30 in test [2].
Regarding `COc1cccc(-c2nnc(-c3ccccc3)o2)c1[N+](=O)[O-]` [Entry 88, 2-(3-methoxy-2-nitrophenyl)-5-phenyl-1,3,4-oxadiazole], the pEC50 in test [1] and in test [2] was greater than 6.00 each time.
Take `Cc1cccc(-c2nnc(-c3ccccc3)o2)c1[N+](=O)[O-]` [Entry 89, 2-(3-methyl-2-nitrophenyl)-5-phenyl-1,3,4-oxadiazole]: the negative-log EC50 (pEC50) in test [1] and in test [2] was greater than 6.00 each time.
As for `O=[N+]([O-])c1c(Cl)cccc1-c1nnc(-c2ccccc2)o1` [Entry 90, 2-(3-chloro-2-nitrophenyl)-5-phenyl-1,3,4-oxadiazole], the pEC50 in test [1] and in test [2] was 5.30 to 6.00 in each case.
Consider `O=[N+]([O-])c1ccccc1-c1nnc(-c2ccc(Cl)cc2)o1` [Entry 92, 2-(4-chlorophenyl)-5-(2-nitrophenyl)-1,3,4-oxadiazole], for which the pEC50 in test [1] and in test [2] was less than 5.30 each time.
`COc1ccc(-c2nnc(-c3ccccc3)s2)cc1` [Entry 1001, 2-(4-methoxyphenyl)-5-phenyl-1,3,4-thiadiazole]: the pEC50 in test [1] and in test [2] was greater than 6.00 throughout.
Regarding `Cc1ccc(-c2nnc(-c3ccccc3)s2)cc1` [Entry 1002, 2-phenyl-5-(p-tolyl)-1,3,4-thiadiazole], the pEC50 in test [1] and in test [2] was greater than 6.00 each time.
Consider `Cc1ccc(-c2nnc(-c3ccccc3Cl)s2)cc1` [Entry 1003, 2-(2-chlorophenyl)-5-(p-tolyl)-1,3,4-thiadiazole], for which the pEC50 in test [1] and in test [2] was greater than 6.00 throughout.
As for `c1ccc(-c2nnc(-c3ccccc3)s2)cc1` [Entry 1004, 2,5-diphenyl-1,3,4-thiadiazole], the pEC50 in test [1] and in test [2] was greater than 6.00 each time.
For the compound `Cc1ccc(-c2nnc(-c3ccccc3[N+](=O)[O-])s2)cc1` [Entry 1005, 2-(2-nitrophenyl)-5-(p-tolyl)-1,3,4-thiadiazole], the pEC50 in test [1] and in test [2] was greater than 6.00 in each case.
On to `c1ccc(-c2nnc(C3CCCCC3)s2)cc1` [Entry 1006, 2-cyclohexyl-5-phenyl-1,3,4-thiadiazole], for which the pEC50 in test [1] and in test [2] was greater than 6.00 each time.
As to `c1ccc(-c2nnc(C34CC5CC(CC(C5)C3)C4)s2)cc1` [Entry 1007, 2-((1S,3S)-adamantan-1-yl)-5-phenyl-1,3,4-thiadiazole], the pEC50 in test [1] and in test [2] was greater than 6.00 in each case.
For the compound `FC(F)(F)c1cccc(-c2nnc(-c3ccccn3)s2)c1` [Entry 1008, 2-(pyridin-2-yl)-5-(3-(trifluoromethyl)phenyl)-1,3,4-thiadiazole], the pEC50 in test [1] and in test [2] was greater than 6.00 in each case.
With `FC(F)(F)c1ccc(-c2nnc(-c3ccccn3)s2)cc1` [Entry 1009, 2-(pyridin-2-yl)-5-(4-(trifluoromethyl)phenyl)-1,3,4-thiadiazole], the pEC50 in test [1] and in test [2] was greater than 6.00 each time.
In the case of `c1ccc(-c2nnc(-c3cnccn3)s2)cc1` [Entry 1010, 2-phenyl-5-(pyrazin-2-yl)-1,3,4-thiadiazole], the pEC50 in test [1] and in test [2] was greater than 6.00 each time.
As for `COc1cccc(-c2nnc(-c3ccccc3)s2)c1` [Entry 1012, 2-(3-methoxyphenyl)-5-phenyl-1,3,4-thiadiazole], the pEC50 in test [1] and in test [2] was greater than 6.00 in each case.
For the compound `COc1ccccc1-c1nnc(-c2ccccc2)s1` [Entry 1013, 2-(2-methoxyphenyl)-5-phenyl-1,3,4-thiadiazole], the pEC50 in test [1] and in test [2] was greater than 6.00 throughout.
Regarding `FC(F)(F)c1cccc(-c2nnc(-c3ccccc3)s2)c1` [Entry 1014, 2-phenyl-5-(3-(trifluoromethyl)phenyl)-1,3,4-thiadiazole], the pEC50 in test [1] and in test [2] was 5.30 to 6.00 throughout.
With `Cc1ccccc1-c1nnc(-c2ccccc2)s1` [Entry 1015, 2-phenyl-5-(o-tolyl)-1,3,4-thiadiazole], the pEC50 in test [1] and in test [2] was greater than 6.00 in each case.
Consider `CC(C)(C)c1ccc(-c2nnc(-c3ccccc3[N+](=O)[O-])s2)cc1` [Entry 1016, 2-(4-(tert-butyl)phenyl)-5-(2-nitrophenyl)-1,3,4-thiadiazole], for which the negative logarithm of the EC50 (pEC50) in test [1] and in test [2] was greater than 6.00 throughout.
On to `Clc1ccc(-c2nnc(-c3ccccc3)s2)cc1` [Entry 1017, 2-(4-chlorophenyl)-5-phenyl-1,3,4-thiadiazole], for which the pEC50 in test [1] and in test [2] was greater than 6.00 throughout.
For `COc1ccc(-c2nnc(-c3ccc(Br)cc3)s2)cc1` [Entry 1018, 2-(4-bromophenyl)-5-(4-methoxyphenyl)-1,3,4-thiadiazole], the values for the pEC50 in test [1] and in test [2] were greater than 6.00 and 5.30 to 6.00, respectively.
Turning to `COc1ccc(-c2nnc(-c3ccco3)s2)cc1` [Entry 1019, 2-(furan-2-yl)-5-(4-methoxyphenyl)-1,3,4-thiadiazole], the pEC50 in test [1] and in test [2] was greater than 6.00 in each case.
Take `COc1ccc(-c2nnc(-c3ccc(C)o3)s2)cc1` [Entry 1020, 2-(4-methoxyphenyl)-5-(5-methylfuran-2-yl)-1,3,4-thiadiazole]: the pEC50 in test [1] and in test [2] was greater than 6.00 in each case.
